Laboratory results from patent US5989846A, “Assays to identify inducers of plant defense resistance” (Rutgers, The State University of New Jersey, priority 1995, dated 1999).
Where a name gives a salt, the structure may show the parent alone. Read-outs that look alike come from different tables or passages of the source.

What was measured:
[1] = tested on: salicylic acid binding protein; assay: Competitive [14C] salicylic acid binding assay (spin-column); design: species or system tobacco; conditions: [14C] salicylic acid 20 μM; for Inhibition (%) 2×: 40 μM (2×) unlabeled competitor; for Inhibition (%) 10×: 200 μM (10×) unlabeled competitor
Method: The 180 kDa native binding protein isolated was tested for binding affinity and specificity. A competitive assay was established using salicylic acid binding protein fractionated from plants as previously described.
A key element during the characterization and the purification process is a simple, inexpensive, sensitive and reliable method for determining the salicylic acid binding activity. For this purpose, spin-column exclusion chromatography was used to separate the bound [^14 C] salicylic acid (excluded) from the bulk free salicylic acid (included). Specifically, a 1.5 ml Eppendorf tube was punctured at the tip with a 20-gauge needle and a small amount of glass wool was added to cover the small hole. The tube was then filled with Bio-Gel P-6DG desalting gel (exclusion limit 6 KDa; purchased from Bio-Rad, Melville, N.Y.) which have been swollen in water. An alternative gel is Sephadex G-25 fine (from Pharmacia, Piscataway, N.J.). Excess liquid in the gel was removed and centrifuged for 5 minutes at full speed in a Dynamic centrifuge (Becton Dickinson). The process was then repeated several times until the gel filled the tube. After incubation of an aliquot of the extract or column fractions for 2 hr at 4° C. with 5 μM-20 μM [^14 C salicylic acid] (specifically radioactivity 55 Ci/mol; purchased from New England Nuclear), 150 μl of proteins binding sample was loaded onto the tube column, which was then rapidly centrifuged for 2 minutes at full speed and the solution of proteins and bound [^14 C-salicylic acid] that was excluded from the gel was collected into another tube that had been placed under the tube column during the centrifugation. One hundred microliters of this solution was then used to determine the amount of bound salicylic acid. […] For example, to determine the inhibitory effect of various salicylic acid analogues on salicylic acid binding activity, these individual analogues were included in the binding mixture containing both the protein and [^14 C] salicylic acid during the 2 hr incubation, and resulting binding activity was determined in comparison to the activity in the absence of these analogues. Likewise, to determine the effect of pH and antioxidants on the binding activity the protein sample was either dialyzed against a large volume of buffers with different pH or antioxidants were added to the protein sample to various concentrations and the resulting binding activities were then determined with the spin-column method in comparison with the activity determined in the absence of these treatments.

[2] = target: T1, catalase activity of SABP (Nicotiana tabacum, UniProt P49319); assay: Catalase activity of highly purified SABP (luminol method); format: biochemical, tobacco; conditions: for inhibition at 1000 µM: 0.05 h, 1 mM SA or analogue, 1 mM H2O2, 500 ng highly purified SABP; for Inhibition of the catalase activity of SABP (in words): compared with SA
T1 sequence (P49319 1-492): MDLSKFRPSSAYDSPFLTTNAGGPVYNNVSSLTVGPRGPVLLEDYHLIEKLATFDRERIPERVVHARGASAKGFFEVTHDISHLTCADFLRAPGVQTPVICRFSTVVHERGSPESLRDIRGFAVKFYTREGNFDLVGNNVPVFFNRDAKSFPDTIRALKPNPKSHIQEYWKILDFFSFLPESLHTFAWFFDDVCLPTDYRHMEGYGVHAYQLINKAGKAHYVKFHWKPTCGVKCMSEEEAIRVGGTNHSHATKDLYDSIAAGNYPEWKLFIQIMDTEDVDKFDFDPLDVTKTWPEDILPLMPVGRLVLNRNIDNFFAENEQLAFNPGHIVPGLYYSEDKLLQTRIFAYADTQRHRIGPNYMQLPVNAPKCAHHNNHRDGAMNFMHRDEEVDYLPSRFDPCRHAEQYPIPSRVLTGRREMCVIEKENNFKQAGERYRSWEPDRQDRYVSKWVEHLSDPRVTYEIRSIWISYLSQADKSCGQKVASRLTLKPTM
Method: Aliquots (50 μl) were removed from the assay mixture at 30 second intervals to assay for amount of H2 O2 remaining using the luminol method as has been described by Warm and Laties, Phytochem. […] The tube was placed in the measuring chamber and assay was initiated with automatic injection into the mixture of 100 μl of 0.5 mM K3 Fe(CN)6 in 0.2N NH4 OH, pH 9.5. Measurements were integrated over 5 second periods. H2 O2 was calculated from the standard curve constructed with known amounts of H2 O2. Rate constants of SABP catalase activity in the presence or absence of SA or its analogues were then calculated based on a first-order mechanism.

[3] = tested on: resistance or PR gene expression; design: key: ++: indicates a high level of biological activity; +: indicates a lower level of biological activity; ±: indicates low, but detectable biological activity in some assays; -: indicates no biological activity; conditions: Table 3; values reported in literature; cited from earlier work
[4] = tested on: SABP; design: concentration or dose not given beside the values; conditions: Table 6; previously published data (Chen et al. 1993); cited from earlier work
[5] = tested on: ascorbate peroxidase; assay: Ascorbate peroxidase activity in tobacco leaf extracts; format: biochemical, Nicotiana tabacum cv. Xanthi nc; conditions: 200 μM compound, corrected for quenching of auto oxidation
Method: […] Two grams of leaves from 6-8 week old tobacco plants (Nicotiana tabacum cv. Xanthi nc) grown at 22° C. in a 14 hr light cycle were homogenized under liquid nitrogen using a pestle and mortar.
To obtain ascorbate peroxidase-containing extracts, the soluble proteins were extracted by grinding the powder in 10 ml of 100 mM potassium phosphate, pH 7, containing […] ascorbate and 1% (weight/volume) polyvinylpyrrolidone, with a small amount of quartz sand. The homogenate was centrifuged at 14,000 g for 5 min. […] The pellet resulting from centrifugation (14,000 g, 15 min.) was resuspended in extraction buffer (100 mM potassium phosphate, pH7, containing 0.25 mM ascorbate and 1% (weight/volume) polyvinylpyrrolidone) and desalted on a PD-10 column (Pharmacia) equilibrated with 50 mM potassium phosphate, pH 7, containing 100 μM ascorbate. The extract was used immediately. […] The amount of protein per assay was 30-50 μg. Oxidation of ascorbate was followed by the decrease in the absorbance at 290 nm.
The values illustrated in FIG. 17 are the mean values for three replicated assays.

[6] = tested on: salicylic acid binding protein; assay: Binding of 14C-labelled ligands by partially purified SABP; design: species or system tobacco; conditions: for [14C] radioactivity bound, with protein / [14C] radioactivity bound, without protein: 50 μM ligand, n = 3, SD; for [14C] radioactivity bound, with protein: 3 mg/ml partially purified SABP; for [14C] radioactivity bound, without protein: no protein
Method: Binding was assayed with 3 mg/ml of the
A key element during the characterization and the purification process is a simple, inexpensive, sensitive and reliable method for determining the salicylic acid binding activity. For this purpose, spin-column exclusion chromatography was used to separate the bound [^14 C] salicylic acid (excluded) from the bulk free salicylic acid (included). Specifically, a 1.5 ml Eppendorf tube was punctured at the tip with a 20-gauge needle and a small amount of glass wool was added to cover the small hole. The tube was then filled with Bio-Gel P-6DG desalting gel (exclusion limit 6 KDa; purchased from Bio-Rad, Melville, N.Y.) which have been swollen in water. An alternative gel is Sephadex G-25 fine (from Pharmacia, Piscataway, N.J.). Excess liquid in the gel was removed and centrifuged for 5 minutes at full speed in a Dynamic centrifuge (Becton Dickinson). The process was then repeated several times until the gel filled the tube. After incubation of an aliquot of the extract or column fractions for 2 hr at 4° C. with 5 μM-20 μM [^14 C salicylic acid] (specifically radioactivity 55 Ci/mol; purchased from New England Nuclear), 150 μl of proteins binding sample was loaded onto the tube column, which was then rapidly centrifuged for 2 minutes at full speed and the solution of proteins and bound [^14 C-salicylic acid] that was excluded from the gel was collected into another tube that had been placed under the tube column during the centrifugation. One hundred microliters of this solution was then used to determine the amount of bound salicylic acid. With this binding assay, characterization of the salicylic acid binding protein can be carried out very rapidly. For example, to determine the inhibitory effect of various salicylic acid analogues on salicylic acid binding activity, these individual analogues were included in the binding mixture containing both the protein and [^14 C] salicylic acid during the 2 hr incubation, and resulting binding activity was determined in comparison to the activity in the absence of these analogues. Likewise, to determine the effect of pH and antioxidants on the binding activity the protein sample was either dialyzed against a large volume of buffers with different pH or antioxidants were added to the protein sample to various concentrations and the resulting binding activities were then determined with the spin-column method in comparison with the activity determined in the absence of these treatments.

[7] = tested on: TMV; format: in vivo, tobacco mosaic virus
Method: The SA/SAG valves are given in micrograms per gram fresh weight of leaf tissue and represent averages of values from 3-6 treated plants at 6 days past injection. […] For determination of reduction in lesion size, longitudinal halves of 2 leaves on 3-6 plants were injection with chemicals, and six days later the entire leaf was infected with TMV. Twenty lesions were measured on each half of the leaf seven days post infection; the values given represent the average percent reduction in lesion diameter in the treated leaf half compared to the untreated half.

Compound	Inhibition (%) 2× [1] [%]	Inhibition (%) 10× [1] [%]	inhibition at 1000 µM [2] [%]	Biological activity [3]	Inhibition (%) [14C]SA binding [4] [%]	further results
O=C(O)c1cccc(O)c1O [2,3-Dihydroxybenzoic acid]	1	10	15.3	±	9	Inhibition of the catalase activity of SABP (in words) [2]: poor inhibitor
O=C(O)c1ccc(O)cc1O [2,4-Dihydroxybenzoic acid]	-1	-2	5.2	-	-4	
O=C(O)c1cc(O)ccc1O [2,5-Dihydroxybenzoic acid]	1	-1	3.2	-	1	
O=C(O)c1c(O)cccc1O [2,6-Dihydroxybenzoic acid]	51	91	91.3	++	92	Inhibition of the catalase activity of SABP (in words) [2]: somewhat stronger; % Inhibition of ascorbate peroxidase [5]: 72 ± 8%
O=C(O)c1ccc(O)cc1 [4-Hydroxybenzoic acid]	1	-2	4.1	-	-2	% Inhibition of ascorbate peroxidase [5]: 0 ± 6%
CC(=O)Oc1ccccc1C(=O)O [Acetylsalicylic acid]	25	57	53.6	++	48	Binding by the salicylic acid binding protein ([6]; conclusion from Table 4): not actually bound; Inhibition of the catalase activity of SABP (in words) [2]: weaker than SA
[Ba+2].[Cl-].[Cl-] [BaCl2, barium chloride]						Reduction in lesion size (%) ([7]; in vivo): 60%
O=C(O)[14c]1ccccc1O [[^14 C] salicylic acid]						[14C] radioactivity bound, with protein [6]: 989 ± 78 dpm/100 μl; [14C] radioactivity bound, without protein [6]: 89 ± 7 dpm/100 μl
CC(=O)Oc1ccccc1[14C](=O)O [[carboxyl-^14 C] acetylsalicylic acid]						[14C] radioactivity bound, with protein [6]: 397 ± 25 dpm/100 μl; [14C] radioactivity bound, without protein [6]: 112 ± 10 dpm/100 μl
Cc1ncc(C[n+]2csc(CCO)c2C)c(N)n1 [thiamine-HCl]						Reduction in lesion size (%) ([7]; in vivo): 71%
CCC(N)C(=O)O (stereo not drawn) [α-amino butyric acid]						Reduction in lesion size (%) ([7]; TMV infection six days after injection, lesions measured seven days post infection, treated vs untreated leaf half): 63%
[Acetyl-^14 C] acetylsalicylic acid						[14C] radioactivity bound, with protein [6]: 96 ± 10 dpm/100 μl; [14C] radioactivity bound, without protein [6]: 104 ± 9 dpm/100 μl
